Laboratory results from patent US20240409585A1, “MACROCYCLIC IMMUNOMODULATORS” (priority 2021, published 2024).
Bridge positions count the residues as written; N and C are the ends. Square brackets hold non-standard residues; d marks the D form. Peptide text beside a SMILES is read from it. * marks the point of attachment. ξ: configuration not given here. Phe(4-COOH) = N[C@@H](Cc1ccc(C(=O)O)cc1)C(=O)O; Bip = N[C@@H](Cc1ccc(-c2ccccc2)cc1)C(=O)O; Phe(3-Me) = Cc1cccc(C[C@H](N)C(=O)O)c1; Phe(4-I) = N[C@@H](Cc1ccc(I)cc1)C(=O)O; NMeY = CN[C@@H](Cc1ccc(O)cc1)C(=O)O; h4Pal = N[C@@H](CCc1ccncc1)C(=O)O; aIle = CC[C@@H](C)[C@H](N)C(=O)O; 3Pal = N[C@@H](Cc1cccnc1)C(=O)O; 4Pal = N[C@@H](Cc1ccncc1)C(=O)O; Cha = N[C@@H](CC1CCCCC1)C(=O)O; Cit = NC(=O)NCCC[C@H](N)C(=O)O; Ile(3ξ) = CCC(C)[C@H](N)C(=O)O; aThr = C[C@H](O)[C@H](N)C(=O)O; Thr(3ξ) = CC(O)[C@H](N)C(=O)O; Ala(CN) = N#CC[C@H](N)C(=O)O; dNva = CCC[C@@H](N)C(=O)O; Carboxymethyl = O=C(O)C*; NMeA = CN[C@@H](C)C(=O)O; Orn = NCCC[C@H](N)C(=O)O; Dab = NCC[C@H](N)C(=O)O; Aib = CC(C)(N)C(=O)O; ξV = CC(C)C(N)C(=O)O

The molecules below were run against T1, PE-labeled human PD-L1-Ig binding to Jurkat cell line over-expressing human PD-1 (Jurkat-PD-1) (Homo sapiens, UniProt Q15116) (assay: Jurkat-PD-1 Cell Binding High-Content Screening Assay (CBA): Method 1). Conditions: Jurkat-hPD-1 cells, PE-labeled PD-L1-Ig 20 nM final; read-out: Jurkat HPDL1 PD1 IC50 (uM) (Method 1).
T1 construct: expressed in transfected cells; host or cells: Jurkat
T1 sequence (Q15116 25-288): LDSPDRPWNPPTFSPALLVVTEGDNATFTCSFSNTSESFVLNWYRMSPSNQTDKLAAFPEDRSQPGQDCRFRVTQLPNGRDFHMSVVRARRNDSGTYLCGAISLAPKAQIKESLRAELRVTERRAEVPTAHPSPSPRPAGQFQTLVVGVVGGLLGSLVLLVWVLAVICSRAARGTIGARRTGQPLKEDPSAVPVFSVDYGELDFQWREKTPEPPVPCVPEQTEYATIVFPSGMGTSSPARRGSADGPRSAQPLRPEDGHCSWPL

SMILES	IC50 [µM]
CC(C)C[C@@H]1NC(=O)[C@H](CCCN)NC(=O)[C@@H](CC(C)C)NC(=O)[C@H](C)N(C)C(=O)[C@H](CCCNC(=N)N)NC(=O)[C@H](Cc2ccc(-c3ccccc3)cc2)NC(=O)[C@H](C(C)C)NC(=O)[C@H](Cc2c[nH]c3ccccc23)NC(=O)[C@H](CC(=O)O)NC(=O)[C@H](Cc2ccc(OCC(=O)O)cc2)NC(=O)[C@H](CC(N)=O)NC(=O)CSC[C@@H](C(=O)N[C@@H](C)C(N)=O)NC(=O)[C@H]([C@@H](C)O)NC(=O)[C@H](C(C)C)NC1=O [Compound 1152] ({CH2CO}-NY(Carboxymethyl)DWV[Bip]R[NMeA][dL][Orn]LVTCA-NH2; thioether N-14)	0.08
CC(C)C[C@@H]1NC(=O)[C@H](CCN)NC(=O)[C@@H](CC(C)C)NC(=O)[C@H](Cc2ccc(O)cc2)N(C)C(=O)[C@H](C(C)C)NC(=O)[C@H](Cc2ccc(-c3ccccc3)cc2)NC(=O)[C@H](C(C)C)NC(=O)[C@H](Cc2c[nH]c3ccccc23)NC(=O)[C@H](CC(=O)O)NC(=O)[C@H](Cc2ccc(O)cc2)NC(=O)[C@H](CC(N)=O)NC(=O)CSC[C@@H](C(=O)N[C@@H](C)C(N)=O)NC(=O)[C@H]([C@@H](C)O)NC(=O)[C@H](C(C)C)NC1=O [Compound 1364] ({CH2CO}-NYDWV[Bip]V[NMeY][dL][Dab]LVTCA-NH2; thioether N-14)	0.01
CC(C)C[C@@H]1NC(=O)[C@H](CCCNC(=N)N)NC(=O)[C@@H](CC(C)C)NC(=O)[C@H](C)N(C)C(=O)[C@H](CCCNC(=N)N)NC(=O)[C@H](Cc2ccc(-c3ccccc3)cc2)NC(=O)[C@H](C(C)C)NC(=O)[C@H](Cc2c[nH]c3ccccc23)NC(=O)[C@H](CC(=O)O)NC(=O)[C@H](Cc2ccc(O)cc2)NC(=O)[C@H](CC(N)=O)NC(=O)CSC[C@@H](C(=O)N[C@@H](C)C(N)=O)NC(=O)[C@H]([C@@H](C)O)NC(=O)[C@H](C(C)C)NC1=O [Compound 1045] ({CH2CO}-NYDWV[Bip]R[NMeA][dL]RLVTCA-NH2; thioether N-14)	0.2
CC(=O)NCCCC[C@@H]1NC(=O)[C@H](Cc2ccc(-c3ccccc3)cc2)NC(=O)[C@H](Cc2ccc(O)cc2)NC(=O)[C@H](Cc2cccc(C)c2)NC(=O)[C@H](CC(=O)O)NC(=O)[C@H](Cc2ccc(OCC(=O)O)cc2)NC(=O)[C@H](C(C)O)NC(=O)CSC[C@@H](C(N)=O)NC(=O)[C@H](C(C)O)NC(=O)[C@H](C(C)C)NC(=O)[C@H](CC2CCCCC2)NC(=O)[C@H](CCN)NC(=O)[C@@H](CC(C)C)NC(=O)[C@H](C)N(C)C1=O (stereo partly drawn) [Compound 2255] ({CH2CO}-[Thr(3ξ)]Y(Carboxymethyl)D[Phe(3-Me)]Y[Bip]K(Ac)[NMeA][dL][Dab][Cha]V[Thr(3ξ)]C-NH2; thioether N-14)	0.06
Cc1cccc(C[C@@H]2NC(=O)[C@H](CC(=O)O)NC(=O)[C@H](Cc3ccc(OCC(=O)O)cc3)NC(=O)[C@H](Cc3ccc(OCC(=O)O)cc3)NC(=O)CSC[C@@H](C(=O)N[C@@H](C)C(N)=O)NC(=O)[C@H]([C@H](C)O)NC(=O)[C@H](C(C)C)NC(=O)[C@H](CC(C)C)NC(=O)[C@H](CCN)NC(=O)[C@@H](CC(C)C)NC(=O)[C@H](C)N(C)C(=O)[C@H](C(C)C)NC(=O)[C@H](Cc3ccc(-c4ccccc4)cc3)NC(=O)[C@H](C(C)C)NC2=O)c1 [Compound 1578] ({CH2CO}-Y(Carboxymethyl)Y(Carboxymethyl)D[Phe(3-Me)]V[Bip]V[NMeA][dL][Dab]LV[aThr]CA-NH2; thioether N-14)	0.01
CC[C@@H](C)[C@@H]1NC(=O)[C@H](Cc2ccc(-c3ccccc3)cc2)NC(=O)[C@H](CC#N)NC(=O)[C@H](Cc2c[nH]c3ccccc23)NC(=O)[C@H](CC(=O)O)NC(=O)[C@H](Cc2ccc(C(=O)O)cc2)NC(=O)[C@H](Cc2ccc(OCC(=O)O)cc2)NC(=O)CSC[C@@H](C(=O)N[C@@H](CCCCN)C(N)=O)NC(=O)[C@H](CO)NC(=O)C(C(C)C)NC(=O)[C@H](CC(C)C)NC(=O)[C@H](CC(N)=O)NC(=O)[C@@H](CC(C)C)NC(=O)[C@H](C)N(C)C1=O (stereo partly drawn) [Compound 2102] ({CH2CO}-Y(Carboxymethyl)[Phe(4-COOH)]DW[Ala(CN)][Bip][aIle][NMeA][dL]NL[ξV]SCK-NH2; thioether N-14)	0.19
CC(C)C[C@@H]1NC(=O)[C@H](Cc2c[nH]c3ccccc23)NC(=O)[C@H](CC(=O)O)NC(=O)[C@H](Cc2ccc(O)cc2)NC(=O)[C@H](Cc2ccccc2)NC(=O)CSC[C@@H](C(=O)NCC(N)=O)NC(=O)[C@H](CO)NC(=O)[C@H](C(C)C)NC(=O)[C@H](CC(C)C)NC(=O)[C@H](CC(N)=O)NC(=O)C(C)(C)NC(=O)[C@H](C)N(C)C(=O)[C@H](C(C)C)NC(=O)[C@H](Cc2ccc(-c3ccccc3)cc2)NC1=O [Compound 1818] ({CH2CO}-FYDWL[Bip]V[NMeA][Aib]NLVSCG-NH2; thioether N-14)	0.42
CC(C)C[C@@H]1NC(=O)[C@H](Cc2c[nH]c3ccccc23)NC(=O)[C@H](CC(=O)O)NC(=O)[C@H](Cc2ccc(C(=O)O)cc2)NC(=O)[C@H](Cc2ccc(OCC(=O)O)cc2)NC(=O)CSC[C@@H](C(=O)N[C@@H](CO)C(N)=O)NC(=O)[C@H](CO)NC(=O)[C@H](C(C)C)NC(=O)[C@H](CC2CCCCC2)NC(=O)[C@H](CCN)NC(=O)[C@@H](CC(C)C)NC(=O)[C@H](C)N(C)C(=O)[C@H](C(C)C)NC(=O)[C@H](Cc2ccc(-c3ccccc3)cc2)NC1=O [Compound 1913] ({CH2CO}-Y(Carboxymethyl)[Phe(4-COOH)]DWL[Bip]V[NMeA][dL][Dab][Cha]VSCS-NH2; thioether N-14)	0.01
CC(C)C[C@@H]1NC(=O)[C@H](CCCNC(=N)N)NC(=O)[C@@H](CC(C)C)NC(=O)[C@H](C)N(C)C(=O)[C@H](CCCNC(=N)N)NC(=O)[C@H](Cc2ccc(I)cc2)NC(=O)[C@H](C(C)C)NC(=O)[C@H](Cc2c[nH]c3ccccc23)NC(=O)[C@H](CC(=O)O)NC(=O)[C@H](Cc2ccc(O)cc2)NC(=O)[C@H](Cc2ccccc2)NC(=O)CSC[C@@H](C(=O)N[C@@H](C)C(N)=O)NC(=O)[C@H]([C@@H](C)O)NC(=O)[C@H](C(C)C)NC1=O [Compound 1089] ({CH2CO}-FYDWV[Phe(4-I)]R[NMeA][dL]RLVTCA-NH2; thioether N-14)	0.94
Cc1cccc(C[C@@H]2NC(=O)[C@H](CC(=O)O)NC(=O)[C@H](Cc3ccc(OCC(=O)O)cc3)NC(=O)[C@H](Cc3ccncc3)NC(=O)CSC[C@@H](C(=O)N[C@@H](C)C(N)=O)NC(=O)[C@H]([C@@H](C)O)NC(=O)[C@H](C(C)C)NC(=O)[C@H](CC(C)C)NC(=O)[C@H](CCN)NC(=O)[C@@H](CC(C)C)NC(=O)[C@H](C)N(C)C(=O)[C@H](CCCNC(N)=O)NC(=O)[C@H](Cc3ccc(-c4ccccc4)cc3)NC(=O)[C@H](C(C)C)NC2=O)c1 [Compound 1421] ({CH2CO}-[4Pal]Y(Carboxymethyl)D[Phe(3-Me)]V[Bip][Cit][NMeA][dL][Dab]LVTCA-NH2; thioether N-14)	0.01
CC(C)C[C@@H]1NC(=O)[C@H](Cc2c[nH]c3ccccc23)NC(=O)[C@H](CC(=O)O)NC(=O)[C@H](Cc2ccc(OCC(=O)O)cc2)NC(=O)[C@H](CCc2ccncc2)NC(=O)CSC[C@@H](C(=O)N[C@@H](CC(N)=O)C(N)=O)NC(=O)[C@H](Cc2cnc[nH]2)NC(=O)[C@H](C(C)C)NC(=O)[C@H](CC(C)C)NC(=O)[C@H](CCN)NC(=O)[C@@H](CC(C)C)NC(=O)[C@H](C)N(C)C(=O)[C@H](C(C)C)NC(=O)[C@H](Cc2ccc(-c3ccccc3)cc2)NC1=O [Compound 2099] ({CH2CO}-[h4Pal]Y(Carboxymethyl)DWL[Bip]V[NMeA][dL][Dab]LVHCN-NH2; thioether N-14)	0.02
CC[C@@H](C)[C@@H]1NC(=O)[C@H](Cc2ccc(-c3ccccc3)cc2)NC(=O)[C@H](CC(C)C)NC(=O)[C@H](Cc2c[nH]c3ccccc23)NC(=O)[C@H](CC(=O)O)NC(=O)[C@H](Cc2ccc(C(=O)O)cc2)NC(=O)[C@H](Cc2ccc(OCC(=O)O)cc2)NC(=O)CSC[C@@H](C(=O)N[C@@H](CCCCN)C(N)=O)NC(=O)[C@H](CC(=O)O)NC(=O)C(C(C)C)NC(=O)[C@H](CC(C)C)NC(=O)[C@H](CC(N)=O)NC(=O)[C@@H](CC(C)C)NC(=O)[C@H](C)N(C)C1=O (stereo partly drawn) [Compound 2105] ({CH2CO}-Y(Carboxymethyl)[Phe(4-COOH)]DWL[Bip][aIle][NMeA][dL]NL[ξV]DCK-NH2; thioether N-14)	0.1
CC(C)C[C@@H]1NC(=O)[C@H](CCCN)NC(=O)[C@@H](CC(C)C)NC(=O)[C@H](C)N(C)C(=O)[C@H](CCCNC(=N)N)NC(=O)[C@H](Cc2ccc(-c3ccccc3)cc2)NC(=O)[C@H](C(C)C)NC(=O)[C@H](Cc2c[nH]c3ccccc23)NC(=O)[C@H](CC(=O)O)NC(=O)[C@H](Cc2cnc[nH]2)NC(=O)[C@H](Cc2ccccc2)NC(=O)CSC[C@@H](C(=O)N[C@@H](C)C(N)=O)NC(=O)[C@H]([C@@H](C)O)NC(=O)[C@H](C(C)C)NC1=O [Compound 1129] ({CH2CO}-FHDWV[Bip]R[NMeA][dL][Orn]LVTCA-NH2; thioether N-14)	0.09
CCC[C@H]1NC(=O)[C@H](C)N(C)C(=O)[C@H](CCCNC(=N)N)NC(=O)[C@H](Cc2ccc(-c3ccccc3)cc2)NC(=O)[C@H](C(C)C)NC(=O)[C@H](Cc2c[nH]c3ccccc23)NC(=O)[C@H](CC(=O)O)NC(=O)[C@H](Cc2ccc(O)cc2)NC(=O)[C@H](Cc2ccccc2)NC(=O)CSC[C@@H](C(=O)N[C@@H](C)C(N)=O)NC(=O)[C@H]([C@@H](C)O)NC(=O)[C@H](C(C)C)NC(=O)[C@H](CC(C)C)NC(=O)[C@H](CCCNC(=N)N)NC1=O [Compound 1064] ({CH2CO}-FYDWV[Bip]R[NMeA][dNva]RLVTCA-NH2; thioether N-14)	0.1
CCC(C)[C@@H]1NC(=O)[C@H](Cc2ccc(-c3ccccc3)cc2)NC(=O)[C@H](C(C)C)NC(=O)[C@H](Cc2c[nH]c3ccccc23)NC(=O)[C@H](CC(=O)O)NC(=O)[C@H](Cc2ccc(O)cc2)NC(=O)[C@H](Cc2cccnc2)NC(=O)CSC[C@@H](C(=O)N[C@@H](C)C(N)=O)NC(=O)[C@H](C(C)O)NC(=O)[C@H](C(C)C)NC(=O)[C@H](CC2CCCCC2)NC(=O)[C@H](CCN)NC(=O)[C@@H](CC(C)C)NC(=O)[C@H](C)N(C)C1=O (stereo partly drawn) [Compound 2052] ({CH2CO}-[3Pal]YDWV[Bip][Ile(3ξ)][NMeA][dL][Dab][Cha]V[Thr(3ξ)]CA-NH2; thioether N-14)	0.02
